Measured values from US20240044922A1, “DEVICE AND METHODS FOR MEASURING PLATELET-FIBRIN CLOT CONTRACTION KINETICS” (University of Kentucky Research Foundation, priority 2022, published 2024).

Test system: washed mouse platelets
Assay: Clot contraction assay, time-lapse imaging of washed mouse platelets with thrombin, fibrinogen and CaCl2
Type: cell-based
Details: for AUC / Average Velocity / Clot Contraction Extent / Lag time / PHASE 1 % Contraction / PHASE 1 Rate 1 / PHASE 1 t1 / PHASE 2 % Contraction / PHASE 2 Rate 2 / PHASE 2 t2 / PHASE 3 % Contraction / PHASE 3 Rate 3: standard conditions

## O=CC[C@@H](O)[C@H](O)[C@H](O)CO [2DG, 2-deoxyglucose, reference compound]
10 mM 2DG
  Reduction of Phase 3 rate: ~5 fold
2DG 5 mM
  AUC: 6.10 AU
  Average Velocity: 0.74 %/min
  Clot Contraction Extent: 72.66%
  Lag time: 23.33 min
  PHASE 1 % Contraction: 2.68%
  PHASE 1 Rate 1: 2.00 ×10^−3 %/min
  PHASE 1 t1: 11.67 min
  PHASE 2 % Contraction: 16.98%
  PHASE 2 Rate 2: 0.88 %/min
  PHASE 2 t2: 30.33 min
  PHASE 3 % Contraction: 53%
  PHASE 3 Rate 3: 1.83 ×10^−2 %/min
2DG 10 mM
  AUC: 7.44 AU
  Average Velocity: 0.51 %/min
  Clot Contraction Extent: 50.55%
  Lag time: 37.00 min
  PHASE 1 % Contraction: 5.82%
  PHASE 1 Rate 1: 3.33 ×10^−3 %/min
  PHASE 1 t1: 23.33 min
  PHASE 2 % Contraction: 13.04%
  PHASE 2 Rate 2: 0.69 %/min
  PHASE 2 t2: 44.33 min
  PHASE 3 % Contraction: 31.68%
  PHASE 3 Rate 3: 0.87 ×10^−2 %/min
2DG 25 mM
  Detection of the three phases of contraction: none of the three phases were detectible
  AUC: 8.57 AU
  Average Velocity: 0.24 %/min
  Clot Contraction Extent: 23.45%
  Lag time: 99.00 min
Varying 2DG concentrations
  Effect on average velocity: significant inhibitory effects
  Effect on extent of contraction: significant inhibitory effects
  Effect on lag time: prolonged lag time

## Cc1ccc2c(c1)C(=O)C1(O)CCN(c3ccccc3)C1=N2 (stereo not shown) [Blebbistatin, blebbistatin, reference compound]
Blebbistatin 50 μM
  AUC: 4.18 AU
  Average Velocity: 1.00 %/min
  Clot Contraction Extent: 96.93%
  Lag time: 23.33 min
  PHASE 1 % Contraction: 4.23%
  PHASE 1 Rate 1: 3.67 ×10^−3 %/min
  PHASE 1 t1: 14.33 min
  PHASE 2 % Contraction: 26.51%
  PHASE 2 Rate 2: 1.40 %/min
  PHASE 2 t2: 32.00 min
  PHASE 3 % Contraction: 66.19%
  PHASE 3 Rate 3: 5.00 ×10^−2 %/min
Blebbistatin 100 μM
  AUC: 6.08 AU
  Average Velocity: 0.88 %/min
  Clot Contraction Extent: 85.15%
  Lag time: 40.00 min
  PHASE 1 % Contraction: 7.21%
  PHASE 1 Rate 1: 4.00 ×10^−3 %/min
  PHASE 1 t1: 24.67 min
  PHASE 2 % Contraction: 28.71%
  PHASE 2 Rate 2: 1.00 %/min
  PHASE 2 t2: 51.00 min
  PHASE 3 % Contraction: 49.27%
  PHASE 3 Rate 3: 3.47 ×10^−2 %/min
Blebbistatin 200 μM
  AUC: 6.79 AU
  Average Velocity: 0.69 %/min
  Clot Contraction Extent: 66.52%
  Lag time: 43.67 min
  PHASE 1 % Contraction: 12.21%
  PHASE 1 Rate 1: 5.00 ×10^−3 %/min
  PHASE 1 t1: 31.00 min
  PHASE 2 % Contraction: 14.17%
  PHASE 2 Rate 2: 0.69 %/min
  PHASE 2 t2: 49.33 min
  PHASE 3 % Contraction: 40.15%
  PHASE 3 Rate 3: 1.70 ×10^−2 %/min
Blebbistatin 50 to 200 μM
  Effect on Phase 2 contraction rate: drastic decrease
  Effect on average velocity: decrease
  Effect on extent of clot contraction: decrease
  Effect on lag time: dose-dependent increase
